Experimental data: patent US20050234066A1, “Alpha substituted carboxylic acids” (Agouron Pharmaceuticals, Inc., priority 2004, published 2005)

Experiments:
[1] = molecular target: T1, PPAR-α (Homo sapiens, UniProt Q07869); assay: Scintillation Proximity Assay (SPA), displacement of 3H labeled GW2331; format: binding; settings: 3H GW2331 displacement, read-out: PPAR-alpha Ki
T1 sequence (Q07869 1-468): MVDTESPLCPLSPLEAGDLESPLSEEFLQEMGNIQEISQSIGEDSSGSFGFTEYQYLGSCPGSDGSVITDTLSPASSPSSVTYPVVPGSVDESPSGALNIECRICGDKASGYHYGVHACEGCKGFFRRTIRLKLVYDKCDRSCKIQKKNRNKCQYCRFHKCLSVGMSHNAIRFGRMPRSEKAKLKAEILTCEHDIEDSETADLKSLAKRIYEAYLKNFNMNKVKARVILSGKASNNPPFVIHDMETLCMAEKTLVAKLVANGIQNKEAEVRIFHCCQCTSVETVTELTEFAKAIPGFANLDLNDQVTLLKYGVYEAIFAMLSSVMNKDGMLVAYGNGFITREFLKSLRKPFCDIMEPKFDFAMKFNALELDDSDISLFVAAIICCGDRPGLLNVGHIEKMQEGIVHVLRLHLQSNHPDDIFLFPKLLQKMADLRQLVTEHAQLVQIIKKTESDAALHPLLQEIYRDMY
Text: (§1) Scintillatian Proximity Assay (SPA) Assays
(§2) In the SPA assay, 3H labeled darglitazone (for PPAR-γ) or GW2331 (for PPAR-α) is bound to the PPAR protein captured on SPA polylysine beads and generates radioactive count signal that can be detected by TopCounts (Packard). The PPAR-bound 3H labeled ligand can be displaced by an unlabeled compound. The Ki of the compound can be then determined by the extent of displacement at various compound concentrations. Reagents: • SPA polylysine beads, which can be purchased from Amersham Bioscience. • H labeled Darglitazone for PPAR-γ. • H labeled GW2331 for PPAR-α. • PPAR proteins. • Buffer—PBS, 10% glycerol, 14 mM beta-mercaptoethanol.

[2] = molecular target: T2, PPAR-γ (Homo sapiens, UniProt P37231); assay: Scintillation Proximity Assay (SPA), displacement of 3H labeled darglitazone; format: binding; settings: 3H darglitazone displacement, read-out: PPAR-gamma Ki
T2 sequence (P37231 1-505): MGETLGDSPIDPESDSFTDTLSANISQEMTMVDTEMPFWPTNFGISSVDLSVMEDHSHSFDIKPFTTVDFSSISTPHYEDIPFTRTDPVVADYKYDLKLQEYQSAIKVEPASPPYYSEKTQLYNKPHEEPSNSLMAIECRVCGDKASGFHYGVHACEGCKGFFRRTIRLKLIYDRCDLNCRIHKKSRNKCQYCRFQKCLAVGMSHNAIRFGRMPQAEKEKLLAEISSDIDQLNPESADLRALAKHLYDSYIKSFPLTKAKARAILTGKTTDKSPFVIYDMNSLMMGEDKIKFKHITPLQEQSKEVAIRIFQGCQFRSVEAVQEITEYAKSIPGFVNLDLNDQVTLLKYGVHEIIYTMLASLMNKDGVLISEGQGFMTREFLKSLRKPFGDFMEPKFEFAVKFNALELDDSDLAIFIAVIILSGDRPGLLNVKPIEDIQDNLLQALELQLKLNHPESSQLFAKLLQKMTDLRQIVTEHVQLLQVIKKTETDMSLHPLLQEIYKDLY
Text: as §1, §2

Ki [1] [nM] | Ki [2] [nM] | SMILES
190 | 170 | CC(C)(Oc1cccc(CNC(=O)OCc2cccc(Oc3ccccc3)c2)c1)C(=O)O [Example B-10]
240 | 310 | Cc1oc(-c2ccc(C#N)cc2)nc1CCOc1ccc(CC2(C(=O)O)CCCO2)cn1 (stereo not drawn) [Example C-61]
620 | 450 | CCOC(Cc1ccc(OCCc2ccc(OS(=O)(=O)CC)cc2)nc1)C(=O)O [Example D-18]
4800 | 1600 | COC(C)(Cc1ccc(OCCCc2nc(-c3ccccc3)oc2C)cn1)C(=O)O [Example D-28]
22000 | 11000 | O=C(O)C1(Cc2ccc(OCCc3ccc(-c4ccc(F)cc4)cc3)cc2)CCC1 [Example C-07]
64 | 21 | COc1ccc(-c2nc(CCOc3ccc(CC4(C(=O)O)CCCO4)cc3)c(C)o2)cc1 (stereo not drawn) [Example C-84]
7100 |  | CS(=O)(=O)Oc1ccc(CCOc2ccc(CC3(C(=O)O)CCCO3)cn2)cc1 (stereo not drawn) [Example C-72]
16 | 68 | Cc1ccc(-c2nc(CCOc3ccc(CC4(C(=O)O)CCC4)cc3)c(C)o2)cc1 [Example C-26]
21 |  | Cc1oc(-c2ccc(C(F)(F)F)cc2)nc1CCOc1ccc(CC2(C(=O)O)CCCO2)cn1 (stereo not drawn) [Example C-63]
15000 |  | Cc1oc(-c2ccccc2)nc1CCOc1ccc(CC2(C(=O)O)CCOCC2)cc1 [Example C-05]
910 | 31 | CCOC(Cc1ccc(OCCc2ccc(OS(=O)(=O)c3ccccc3)cc2)nc1)C(=O)O [Example D-17]
3200 | 9100 | COC(C)(Cc1ccc(OCCN(C)c2nc3ccccc3o2)nc1)C(=O)O [Example D-34]
22 | 83 | Cc1oc(-c2ccc(C(F)(F)F)c(F)c2)nc1CCOc1ccc(CC2(C(=O)O)CCC2)cc1 [Example C-24]
 | 5000 | COC(C)(Cc1ccc(OCCc2nc(-c3cc(C)nn3C)oc2C)nc1)C(=O)O [Example D-39]
640 | 93 | COc1ccc(-c2nc(CCOc3ccc(CC4(C(=O)O)CCCO4)nc3)c(C)o2)cc1 (stereo not drawn) [Example C-53]
110 | 17 | Cc1oc(-c2ccc(C(F)(F)F)cc2)nc1CCOc1ccc(CC2(C(=O)O)CCCO2)cc1 (stereo not drawn) [Example C-90]
7700 | 220 | CCOC(c1ccc(OCCc2nc(-c3ccccc3)oc2C)nc1)C1(C(=O)O)CCC1 (stereo not drawn) [Example C-45]
1600 |  | CC(C)(Oc1cccc(CNS(=O)(=O)c2ccc(Oc3ccccc3)cc2)c1)C(=O)O [Example B-20]
800 | 400 | COC(C)(Cc1ccc(OCCc2nc(-c3ccccc3)oc2C)cn1)C(=O)O [Example D-29]
1800 | 9600 | COC(C)(Cc1ccc(OCCc2ccc(Oc3ccccc3)cc2)nc1)C(=O)O [Example D-40]
150 | 300 | Cc1oc(-c2ccc(Cl)cc2)nc1CCOc1ccc(CC2(C(=O)O)CCCO2)nc1 (stereo not drawn) [Example C-52]
25000 | 2000 | CS(=O)(=O)c1ccc(-c2ccc(CCOc3ccc(CC4(C(=O)O)CCC4)cc3)cc2)cc1 [Example C-11]
220 |  | CCC(Oc1cccc(CNC(=O)OCc2ccc(-c3noc(C)n3)cc2)c1)C(=O)O (stereo not drawn) [Example B-27]
330 |  | COC(C)(Cc1ccc(OCCc2nc(-c3ccccc3)oc2C)nc1)C(=O)O [Example D-35]
930 |  | CCOC(Cc1ccc(OCCCc2nc(-c3ccccc3)oc2C)cn1)C(=O)O [Example D-24]
 | 2900 | CCOC(Cc1ccc(OCCc2nc(C)sc2C)cn1)C(=O)O [Example D-25]
 | 9600 | COC(C)(Cc1ccc(OCCc2nc(C(C)C)oc2C)nc1)C(=O)O [Example D-38]
14 |  | Cc1oc(-c2ccc(Cl)cc2)nc1CCOc1ccc(CC2(C(=O)O)CCCO2)cn1 (stereo not drawn) [Example C-64]

Ki [1] [nM] | Ki [2] [nM] | SMILES
2900 |  | Cc1oc(-c2ccccc2)nc1CCCOc1ccc(CC2(C(=O)O)CCCC2)cc1 [Example C-03]
120 |  | Cc1oc(-c2ccccc2)nc1CCOc1cccc(-c2cccc(OC3(C(=O)O)CCC3)c2)n1 [Example A-07]
 | 16 | Cc1oc(-c2ccc(C(F)(F)F)c(F)c2)nc1CCOc1ccc(CC2(C(=O)O)CCCO2)cc1 (stereo not drawn) [Example C-82]
54 |  | Cc1oc(-c2cccc(Cl)c2)nc1CCOc1ccc(CC2(C(=O)O)CCCO2)cn1 (stereo not drawn) [Example C-59]
 | 4200 | Cc1nc(CCOc2ccc(CC3(C(=O)O)CCCO3)cn2)c(C)s1 (stereo not drawn) [Example C-68]
9000 |  | CCC(Oc1cccc(CNC(=O)OCCc2nc(-c3ccccc3)oc2C)c1)C(=O)O (stereo not drawn) [Example B-13]
36000 |  | Cc1oc(-c2ccccc2)nc1CCOc1ccc(C(O)C2(C(=O)O)CCC2)cn1 (stereo not drawn) [Example C-44]
7800 |  | CC(Cc1ccccc1)OC(=O)NCc1cccc(OC(C)(C)C(=O)O)c1 (stereo not drawn) [Example B-28]
78 |  | Cc1oc(-c2ccccc2)nc1CCOc1ccc(CC2(C(=O)O)CCCCO2)cn1 (stereo not drawn) [Example C-56]
9700 |  | Cc1ccc(CCOc2ccc(CC3(C(=O)O)CCCO3)cn2)cc1 (stereo not drawn) [Example C-71]
8300 |  | Cc1oc(-c2ccccc2)nc1CCOc1ccc(CC2(C(=O)O)CCCCC2)cn1 [Example C-47]
 | 7800 | COC(C)(Cc1ccc(OCCCc2nc(-c3ccccc3)oc2C)nc1)C(=O)O [Example D-27]
550 |  | CC(C)(Oc1cccc(-c2cccc(OCc3ccc(C(F)(F)F)cc3)c2)c1)C(=O)O [Example A-02, 2-Methyl-2-[(3′-{[4-(trifluoromethyl)benzyl]oxy}1,1′-biphenyl-3-yl)oxy]propanoic acid]
2200 |  | CCC(Oc1cccc(CNC(=O)OCCc2cccc(C(F)(F)F)c2)c1)C(=O)O (stereo not drawn) [Example B-02]
31 |  | Cc1ccc(-c2nc(CCOc3ccc(CC4(C(=O)O)CCCO4)cn3)c(C)o2)cc1 (stereo not drawn) [Example C-66]
82 |  | CCC(Oc1cccc(CNC(=O)OCCCc2nc(-c3ccccc3)oc2C)c1)C(=O)O (stereo not drawn) [Example B-18]
 | 6000 | Cc1oc(-c2ccccc2)nc1CCCOc1ccc(CC2(C(=O)O)CCCO2)nc1 (stereo not drawn) [Example C-55]
 | 42 | CC(C)(C)OC(=O)Nc1ccc(CCOc2ccc(CC3(C(=O)O)CCCO3)cn2)cc1 (stereo not drawn) [Example C-73]
6400 |  | Cc1ccccc1CCOc1ccc(CC2(C(=O)O)CCCO2)cn1 (stereo not drawn) [Example C-70]
240 |  | Cc1oc(-c2ccccc2)nc1CCOc1ccc(CC2(C(=O)O)CCCO2)cn1 (stereo not drawn) [Example C-48, 2-({6-[2-(5-methyl-2-phenyl-1,3-oxazol-4-yl)ethoxy]pyridin-3-yl}methyl)tetrahydrofuran-2-carboxylic acid]
65 |  | COc1ccc(-c2nc(CCOc3ccc(CC4(C(=O)O)CCCO4)cn3)c(C)o2)cc1 (stereo not drawn) [Example C-60]
 | 8100 | COC(Cc1ccc(OCCc2ccc(OS(C)(=O)=O)cc2)nc1)C(=O)O [Example D-12]
5900 |  | COC(C)(Cc1ccc(OCCc2ccc(OC(F)(F)F)cc2)nc1)C(=O)O [Example D-41]
390 |  | Cc1oc(-c2ccccc2)nc1CCOc1ccc(CC2(C(=O)O)CCCC2)cc1 [Example C-02]
 | 7200 | O=C(O)C1(Cc2ccc(OCCCc3nc(-c4ccccc4)oc3-c3ccccc3)cc2)CCC1 [Example C-38]
 | 820 | Cc1oc(-c2ccccc2)nc1CCCCc1ccc(CC2(C(=O)O)CCCO2)cn1 (stereo not drawn) [Example C-75]
 | 6400 | CCOC(Cc1ccc(OCCc2ccc(OCCOC)cc2)nc1)C(=O)O [Example D-16]
